Results published in PMC12389234, “Bioactive Potential of Nepenthes miranda Flower Extracts: Antidiabetic, Anti-Skin Aging, Cytotoxic, and Dihydroorotase-Inhibitory Activities” (Plants, 2025).

Biological target: T1, porcine pancreatic elastase (Sus scrofa, UniProt P00772)
T1 construct: gene CELA1; native mature enzyme from porcine pancreas (commercial, Sigma-Aldrich)
Test: spectrophotometric, p-nitroanilide release, […] nm
Format: biochemical

T1 sequence (P00772 27-266): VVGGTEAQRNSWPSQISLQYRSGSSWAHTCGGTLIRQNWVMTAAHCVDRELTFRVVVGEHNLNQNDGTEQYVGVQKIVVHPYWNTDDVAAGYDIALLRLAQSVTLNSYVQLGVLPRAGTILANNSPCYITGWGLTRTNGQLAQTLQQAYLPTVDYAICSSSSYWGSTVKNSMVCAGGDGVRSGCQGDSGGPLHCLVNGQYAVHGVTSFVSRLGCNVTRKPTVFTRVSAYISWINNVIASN

IC50: 9.27 µM
Compound: O=C(O[C@@H]1Cc2c(O)cc(O)cc2O[C@@H]1c1cc(O)c(O)c(O)c1)c1cc(O)c(O)c(O)c1 [EGCG]
